Data as given in patent US7598389B2, “Silylated carboxamides” (Bayer Cropscience AG, priority 2003, dated 2009).

System: not listed separately
Assay: log P determination by HPLC on reverse-phase column (EEC Directive 79/831 Annex V.A8)
Assay type: physicochemical
Details: Table 1, C 18 reverse-phase column, 43° C., acidic range (pH 2.3)
Description: The given log P values were determined in accordance with EEC Directive 79/831 Annex V.A8 by HPLC (High Performance Liquid Chromatography) on a reverse-phase column (C 18). Temperature: 43° C.
Mobile phases for the determination in the acidic range (pH 2.3): 0.1% aqueous phosphoric acid, acetonitrile; linear gradient from 10% acetonitrile to 90% acetonitrile.
Calibration was carried out using unbranched alkan-2-ones (3 to 16 carbon atoms) with known log P values (determination of the log P values by the retention times using linear interpolation between two successive alkanones).
CC(C[Si](C)(C)C)c1ccccc1NC(=O)c1ccccc1I (racemic) [Example 2] gave a logP of 4.67. Compound CC(C[Si](C)(C)C)c1ccccc1NC(=O)c1ccccc1C(F)(F)F (racemic) [Example 3] has a logP of 4.63. CC(C[Si](C)(C)C)c1ccccc1NC(=O)c1ccccc1Br (racemic) [Example 7] gave a logP of 4.58. For CC(C[Si](C)(C)C)c1ccccc1NC(=O)c1occc1I (racemic) [Example 11], the logP was 4.73. Work on CC(C[Si](C)(C)C)c1ccccc1NC(=O)c1sccc1I (racemic) [Example 12] yielded a logP of 5.05. For CC(C[Si](C)(C)C)c1ccccc1NC(=O)c1cn(C)nc1I (racemic) [Example 15], the logP was 3.94. Work on Cc1occc1C(=O)Nc1ccccc1C(C)C[Si](C)(C)C (racemic) [Example 17] yielded a logP of 4.33. With CC(C[Si](C)(C)C)c1cc(F)ccc1NC(=O)c1ccccc1C(F)(F)F (racemic) [Example 22] the logP was 4.61. For CC(C[Si](C)(C)C)c1cc(F)ccc1NC(=O)c1ccccc1I (racemic) [Example 23], the logP was 4.64. In the case of C[Si](C)(C)CCc1ccccc1NC(=O)c1ccccc1I [Example 4], the logP is reported as 4.40. In the case of C[Si](C)(C)CCc1ccccc1NC(=O)c1ccccc1Cl [Example 5], the logP is reported as 4.29. C[Si](C)(C)CCc1ccccc1NC(=O)c1ccccc1C(F)(F)F [Example 6] gave a logP of 4.37. Compound Cn1cc(C(=O)Nc2ccccc2CC[Si](C)(C)C)c(I)n1 [Example 8] has a logP of 3.68. For Cn1cc(C(=O)Nc2ccccc2CC[Si](C)(C)C)c(C(Cl)Cl)n1 [Example 9], the logP was 3.95. With Cn1nc(C(F)(F)F)c(C(=O)Nc2ccccc2CC[Si](C)(C)C)c1F [Example 10] the logP was 4.19. Cn1cc(C(=O)Nc2ccccc2CC[Si](C)(C)C)c(Cl)n1 [Example 14] showed a logP of 3.89. In the case of Cc1occc1C(=O)Nc1ccccc1CC[Si](C)(C)C [Example 16], the logP is reported as 4.03. C[Si](C)(C)C#Cc1ccccc1NC(=O)c1ccccc1C(F)(F)F [Example 18] gave a logP of 4.78. For C[Si](C)(C)C#Cc1ccccc1NC(=O)c1ccccc1I [Example 19], the logP was 4.97. For C[Si](C)(C)C#Cc1ccccc1NC(=O)c1ccccc1Cl [Example 20], the logP was 4.96. For C[Si](C)(C)C#Cc1ccccc1NC(=O)c1ccccc1Br [Example 21], the logP was 4.93. In the case of C[Si](C)(C)CCc1ccccc1NC(=O)c1sccc1I [Example 24], the logP is reported as 4.85. For C[Si](C)(C)CCc1cc(F)ccc1NC(=O)c1sccc1I [Example 25], the logP was 4.79. C[Si](C)(C)CCc1cc(F)ccc1NC(=O)c1ccccc1C(F)(F)F [Example 26] showed a logP of 4.39.

Same assay, conditions: pH 2.3, C 18 reverse-phase column, 43° C.
For C[Si](C)(C)CCc1ccccc1NC(=O)c1ccccc1Br [Example 1, 2-bromo-N-[2-(2-trimethylsilyl-ethyl)phenyl]benzamide], the chromatographic logP was 4.32. Work on CC(C[Si](C)(C)C)c1ccccc1N (stereo not shown) [Example (III-1), 2-(1-methyl-2-trimethylsilylethyl)phenylamine] yielded a chromatographic logP of 3.05. For C[Si](C)(C)CCc1ccccc1N [Example (III-2), 2-(2-trimethylsilylethyl)phenylamine], the chromatographic logP was 2.58. C[Si](C)(C)C#Cc1ccccc1[N+](=O)[O-] [trimethyl-(2-nitrophenyl-ethynyl)silane] gave a chromatographic logP of 4.12.

System: Venturia inaequalis
Assay: Venturia test (apple)/protective
Assay type: in vivo
Details: 240 h, apple plants, protective, application rate 100 g/ha, evaluation 10 days after inoculation, read-out: Efficacy in %
Description: Venturia Test (Apple)/Protective
(§1) To produce a suitable preparation of active compound, 1 part by weight of active compound is mixed with the stated amounts of solvent and emulsifier, and the concentrate is diluted with water to the desired concentration.
(§2) To test for protective activity, young plants are sprayed with the preparation of active compound at the stated application rate. After the spray coating has dried on, the plants are inoculated with an aqueous conidia suspension of the apple pathogen Venturia inaequalis and then remain in an incubation cabin at about 20° C. and 100% relative atmospheric humidity for one day.
The plants are then placed in a greenhouse at about 21° C. and a relative atmospheric humidity of about 90%.
Evaluation is carried out 10 days after the inoculation. 0% means an efficacy which corresponds to that of the control, whereas an efficacy of 100% means that no infection is observed.
CC(C[Si](C)(C)C)c1ccccc1NC(=O)c1ccccc1C(F)(F)F (stereo not shown) [drawing 54] gave a pest or weed control at 100 g/ha of 99%. In the case of CC(C[Si](C)(C)C)c1ccccc1NC(=O)c1ccccc1I (stereo not shown) [drawing 55], the pest or weed control at 100 g/ha is reported as 100%. C[Si](C)(C)CCc1ccccc1NC(=O)c1ccccc1C(F)(F)F [drawing 56] showed a pest or weed control at 100 g/ha of 84%. With C[Si](C)(C)CCc1ccccc1NC(=O)c1ccccc1Br [drawing 57] the pest or weed control at 100 g/ha was 87%. Work on Cn1nc(C(F)(F)F)c(C(=O)Nc2ccccc2CC[Si](C)(C)C)c1F [drawing 58] yielded a pest or weed control at 100 g/ha of 100%. Cn1cc(C(=O)Nc2ccccc2CC[Si](C)(C)C)c(I)n1 [drawing 59] gave a pest or weed control at 100 g/ha of 100%. In the case of Cc1ccsc1C(=O)Nc1ccccc1CC[Si](C)(C)C [drawing 60], the pest or weed control at 100 g/ha is reported as 100%. C[Si](C)(C)CCc1cc(F)ccc1NC(=O)c1sccc1I [drawing 61] gave a pest or weed control at 100 g/ha of 100%. In the case of CC(C[Si](C)(C)C)c1ccccc1NC(=O)c1occc1I (stereo not shown) [drawing 62], the pest or weed control at 100 g/ha is reported as 100%. With CC(C[Si](C)(C)C)c1ccccc1NC(=O)c1sccc1I (stereo not shown) [drawing 63] the pest or weed control at 100 g/ha was 100%. Work on CC(C[Si](C)(C)C)c1ccccc1NC(=O)c1cn(C)nc1I (stereo not shown) [drawing 64] yielded a pest or weed control at 100 g/ha of 99%.

System: Sphaerotheca fuliginea
Assay: Sphaerotheca test (cucumber)/protective
Assay type: in vivo
Details: cucumber plants, protective; application rate 750 g/ha; evaluation 7 days after inoculation
Description: Sphaerotheca Test (Cucumber)/Protective
as §1
To test for protective activity, young cucumber plants are sprayed with the preparation of active compound at the stated application rate. One day after the treatment, the plants are inoculated with a spore suspension of Sphaerotheca fuliginea. The plants are then placed in a greenhouse at 70% relative atmospheric humidity and a temperature of 23° C.
Evaluation is carried out 7 days after the inoculation. 0% means an efficacy which corresponds to that of the control, whereas an efficacy of 100% means that no infection is observed.
With CC(C[Si](C)(C)C)c1ccccc1NC(=O)c1ccccc1C(F)(F)F (stereo not shown) [drawing 65] the Efficacy in % was 100%. For CC(C[Si](C)(C)C)c1ccccc1NC(=O)c1ccccc1I (stereo not shown) [drawing 66], the Efficacy in % was 100%. C[Si](C)(C)CCc1ccccc1NC(=O)c1ccccc1Br [drawing 67] gave an Efficacy in % of 100%.

System: Puccinia recondite
Assay: Puccinia test (wheat)/protective
Assay type: in vivo
Details: 240 h, wheat plants, protective, application rate 500 g/ha, evaluation ten days after inoculation, read-out: Efficacy in %
Description: Puccinia Test (Wheat)/Protective
To produce a suitable preparation of active compound, 1 part by weight of active compound is mixed with the stated amount of solvent and emulsifier, and the concentrate is diluted with water to the desired concentration.
as §2, with “sprayed” for “inoculated”, “a” for “an aqueous”, “Puccinia recondite. The plants” for “the apple pathogen Venturia inaequalis and then”, “at” for “at about”, “48 hours.” for “one day.”
The plants are then placed in a greenhouse at a temperature of about 20° C. and a relative atmospheric humidity of 80% to promote the development of rust pustules.
Evaluation is carried out ten days after the inoculation. 0% means an efficacy which corresponds to that of the control, whereas an efficacy of 100% means that no infection is observed.
For CC(C[Si](C)(C)C)c1ccccc1NC(=O)c1ccccc1Br (stereo not shown), the pest or weed control at 500 g/ha was 100%. C[Si](C)(C)CCc1ccccc1NC(=O)c1ccccc1C(F)(F)F [drawing 68] gave a pest or weed control at 500 g/ha of 93%. Compound CC(C[Si](C)(C)C)c1ccccc1NC(=O)c1ccccc1I (stereo not shown) [drawing 69] has a pest or weed control at 500 g/ha of 100%. Compound C[Si](C)(C)CCc1ccccc1NC(=O)c1ccccc1I [drawing 70] has a pest or weed control at 500 g/ha of 100%. Compound C[Si](C)(C)CCc1ccccc1NC(=O)c1ccccc1Br [drawing 71] has a pest or weed control at 500 g/ha of 100%. For Cn1cc(C(=O)Nc2ccccc2CC[Si](C)(C)C)c(I)n1 [drawing 72], the pest or weed control at 500 g/ha was 100%. Compound Cc1occc1C(=O)Nc1ccccc1CC[Si](C)(C)C [drawing 73] has a pest or weed control at 500 g/ha of 100%. With Cc1ccsc1C(=O)Nc1ccccc1CC[Si](C)(C)C [drawing 74] the pest or weed control at 500 g/ha was 100%. Work on C[Si](C)(C)CCc1ccccc1NC(=O)c1sccc1I [drawing 75] yielded a pest or weed control at 500 g/ha of 100%. Work on C[Si](C)(C)CCc1cc(F)ccc1NC(=O)c1sccc1I [drawing 76] yielded a pest or weed control at 500 g/ha of 100%. In the case of CC(C[Si](C)(C)C)c1ccccc1NC(=O)c1occc1I (stereo not shown) [drawing 77], the pest or weed control at 500 g/ha is reported as 100%. CC(C[Si](C)(C)C)c1ccccc1NC(=O)c1sccc1I (stereo not shown) [drawing 78] gave a pest or weed control at 500 g/ha of 100%. CC(C[Si](C)(C)C)c1ccccc1NC(=O)c1cn(C)nc1I (stereo not shown) [drawing 80] gave a pest or weed control at 500 g/ha of 100%.
